Results: US10611750B2, “Tetrahydroquinoline compositions as bet bromodomain inhibitors” (FORMA Therapeutics, Inc., priority 2013, dated 2020)

How the values were obtained:
[1] = target: T1, BRD4 Bromodomain 2 (BRD4 BD2) (Homo sapiens, UniProt O60885); assay: AlphaScreen binding assay, BRD4 BD2; details: His-tagged BRD4 BD2 100 nM, biotinylated H4 (1-21) K5/8/12/16 tetra-acetylated peptide 100 nM, compounds listed under IC50 range headings
T1 construct: 333-460 were cloned, expressed, and purified to homogeneity
In short: (§1)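 Compound dilution series were mixed with His-tagged BRD4 bromodomain and biotinylated tetra-acetylated H4 (1-21) peptide at pH 7.3 (BD1 and peptide at 50 nM, BD2 and peptide at 100 nM). Donor and acceptor beads were then added, and plates were equilibrated at least 1 h before reading. IC50 values were fitted with a four-parameter logistic model.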

[2] = system: acute myelocytic leukemia (AML) cell line MV4-11; assay: Oncology cell growth assay (3-day proliferation, CellTiter-Glo); assay type: cell-based; details: Homo sapiens, MV4-11, 72 h, MV4-11 cells, 3000 cells/well, compounds listed under IC50 range headings, read-out: MV411 IC50 (gIC50, inhibition of proliferation)
In short: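 Luminescence from CellTiter-Glo served as the growth read-out after MV4-11 cells (3000/well) were cultured with compound for 72 hours. Final concentrations spanned 10 to 0.0045 μM in 3-fold steps. gIC50 values were derived by four-parameter logistic fitting relative to DMSO and cell-free controls.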

[3] = target: T2, BRD4 Bromodomain 1 (BRD4 BD1) (Homo sapiens, UniProt O60885); assay: AlphaScreen binding assay, BRD4 BD1; details: His-tagged BRD4 BD1 50 nM, biotinylated H4 (1-21) K5/8/12/16 tetra-acetylated peptide 50 nM, compounds listed under IC50 range headings
T2 construct: 44-168 and BRD4 BD2
In short: as §1

| SMILES | IC50 [1] [nM] | IC50 [2] [nM] | IC50 [3] [nM] |
| --- | --- | --- | --- |
| CC(=O)N1c2ccc(-c3cnn(C4CCNCC4)c3)c(Oc3ccc(F)cc3)c2CC[C@@H]1C [I-190, (S)-1-(5-(4-fluorophenoxy)-2-methyl-6-(1-(piperidin-4-yl)-1H-pyrazol-4-yl)-3,4-dihydroquinolin-1(2H)-yl)ethanone] | 50 to 500 | < 500 | 100 to 1000 |
| CC(=O)N1c2ccc(-c3cnn(C4CCNCC4)c3)c(Oc3ccccc3)c2CC[C@@H]1C [I-201, (S)-1-(2-methyl-5-phenoxy-6-(1-(piperidin-4-yl)-1H-pyrazol-4-yl)-3,4-dihydroquinolin-1(2H)-yl)ethanone] | < 50 | < 500 | 100 to 1000 |
| CC(=O)N1c2ccc(-c3cnn(C4CC4)c3)c(Oc3ccc(C(N)=O)cc3)c2CC[C@@H]1C [I-209, (S)-4-(1-acetyl-6-(1-cyclopropyl-1H-pyrazol-4-yl)-2-methyl-1,2,3,4-tetrahydroquinolin-5-yloxy)benzamide] | 50 to 500 | < 500 | 100 to 1000 |
| CC(=O)N1c2ccc(-c3cnn(C4CC4)c3)c(Oc3ccccc3F)c2CC[C@@H]1C [I-210, (S)-1-(6-(1-cyclopropyl-1H-pyrazol-4-yl)-5-(2-fluorophenoxy)-2-methyl-3,4-dihydroquinolin-1(2H)-yl)ethanone] | < 50 | < 500 | 100 to 1000 |
| CC(=O)N1c2ccc(-c3cnn(C4CC4)c3)c(Oc3ccccc3Cl)c2CC[C@@H]1C [I-211, (S)-1-(5-(2-chlorophenoxy)-6-(1-cyclopropyl-1H-pyrazol-4-yl)-2-methyl-3,4-dihydroquinolin-1(2H)-yl)ethanone] | < 50 | < 500 | 100 to 1000 |
| COC(=O)N1c2ccc(-c3cnn(C4CC4)c3)c(Oc3ccc(F)cc3)c2CC[C@@H]1C [I-212, (S)-methyl 6-(1-cyclopropyl-1H-pyrazol-4-yl)-5-(4-fluorophenoxy)-2-methyl-3,4-dihydroquinoline-1(2H)-carboxylate] | 50 to 500 | < 500 | 1000 to 10000 |
| COC(=O)N1c2ccc(-c3cnn(C4CC4)c3)c(Oc3ccc(C#N)cc3)c2CC[C@@H]1C [I-213, (S)-methyl 5-(4-cyanophenoxy)-6-(1-cyclopropyl-1H-pyrazol-4-yl)-2-methyl-3,4-dihydroquinoline-1(2H)-carboxylate] | 50 to 500 | < 500 | 100 to 1000 |
| COC(=O)N1c2ccc(-c3cnn(C4CC4)c3)c(Oc3ccc(Cl)cc3)c2CC[C@@H]1C [I-214, (S)-methyl 5-(4-chlorophenoxy)-6-(1-cyclopropyl-1H-pyrazol-4-yl)-2-methyl-3,4-dihydroquinoline-1(2H)-carboxylate] | < 50 | < 500 | 1000 to 10000 |
| COC(=O)N1c2ccc(-c3cnn(C4CC4)c3)c(Oc3ccccc3Cl)c2CC[C@@H]1C [I-215, (S)-methyl 5-(2-chlorophenoxy)-6-(1-cyclopropyl-1H-pyrazol-4-yl)-2-methyl-3,4-dihydroquinoline-1(2H)-carboxylate] | 50 to 500 | 500 to 1000 | 1000 to 10000 |
| COC(=O)N1c2ccc(-c3cnn(C4CC4)c3)c(Oc3ccc(C(N)=O)cc3)c2CC[C@@H]1C [I-216, (S)-methyl 5-(4-carbamoylphenoxy)-6-(1-cyclopropyl-1H-pyrazol-4-yl)-2-methyl-3,4-dihydroquinoline-1(2H)-carboxylate] | < 50 | < 500 | 100 to 1000 |
| CC(=O)N1c2ccc(-c3cnn(C4CC4)c3)c(Oc3ccc(C#N)cc3)c2CC[C@@H]1C [I-217, (S)-4-(1-acetyl-6-(1-cyclopropyl-1H-pyrazol-4-yl)-2-methyl-1,2,3,4-tetrahydroquinolin-5-yloxy)benzonitrile] | < 50 | < 500 | 100 to 1000 |

More lines, now with the values ahead:

| IC50 [1] [nM] | IC50 [2] [nM] | IC50 [3] [nM] | SMILES |
| --- | --- | --- | --- |
| < 50 | < 500 | 100 to 1000 | COC(=O)N1c2ccc(-c3cnn(C4CCNCC4)c3)c(Oc3ccccc3Cl)c2CC[C@@H]1C [I-160, (S)-methyl 5-(2-chlorophenoxy)-2-methyl-6-(1-(piperidin-4-yl)-1H-pyrazol-4-yl)-3,4-dihydroquinoline-1(2H)-carboxylate] |
| < 50 | > 1000 | 100 to 1000 | COC(=O)N1c2ccc(-c3cnn(C4CCNCC4)c3)c(Oc3ccc(C(N)=O)cc3)c2CC[C@@H]1C [I-161, (S)-methyl 5-(4-carbamoylphenoxy)-2-methyl-6-(1-(piperidin-4-yl)-1H-pyrazol-4-yl)-3,4-dihydroquinoline-1(2H)-carboxylate] |
| < 50 | < 500 | 100 to 1000 | COC(=O)N1c2ccc(-c3cnn(C4CCNCC4)c3)c(Oc3ccc(F)c(C#N)c3)c2CC[C@@H]1C [I-162, (S)-methyl 5-(3-cyano-4-fluorophenoxy)-2-methyl-6-(1-(piperidin-4-yl)-1H-pyrazol-4-yl)-3,4-dihydroquinoline-1(2H)-carboxylate] |
| < 50 | < 500 | 100 to 1000 | COC(=O)N1c2ccc(-c3cnn(C4CCNCC4)c3)c(Oc3ccc(F)c(Cl)c3)c2CC[C@@H]1C [I-163, (S)-methyl 5-(3-chloro-4-fluorophenoxy)-2-methyl-6-(1-(piperidin-4-yl)-1H-pyrazol-4-yl)-3,4-dihydroquinoline-1(2H)-carboxylate] |
| < 50 | < 500 | 100 to 1000 | C[C@H]1CCc2c(ccc(-c3cnn(C4CCNCC4)c3)c2Oc2ccc(F)cc2)N1C(=O)C1CC1 [I-164, (S)-cyclopropyl(5-(4-fluorophenoxy)-2-methyl-6-(1-(piperidin-4-yl)-1H-pyrazol-4-yl)-3,4-dihydroquinolin-1 (2H)-yl)methanone] |
| < 50 | < 500 | 100 to 1000 | C[C@H]1CCc2c(ccc(-c3cnn(C4CCNCC4)c3)c2Oc2ccc(Cl)cc2)N1C(=O)C1CC1 [I-166, (S)-(5-(4-chlorophenoxy)-2-methyl-6-(1-(piperidin-4-yl)-1H-pyrazol-4-yl)-3,4-dihydroquinolin-1(2H)-yl)(cyclopropyl)methanone] |
| < 50 | < 500 | 100 to 1000 | C[C@H]1CCc2c(ccc(-c3cnn(C4CCNCC4)c3)c2Oc2ccc(C#N)cc2)N1C(=O)C1CC1 [I-167] |
| < 50 | < 500 | 100 to 1000 | C[C@H]1CCc2c(ccc(-c3cnn(C4CCNCC4)c3)c2Oc2ccccc2)N1C(=O)C1CC1 [I-168, (S)-cyclopropyl(2-methyl-5-phenoxy-6-(1-(piperidin-4-yl)-1H-pyrazol-4-yl)-3,4-dihydroquinolin-1(2H)-yl)methanone] |
| < 50 | < 500 | 100 to 1000 | C[C@H]1CCc2c(ccc(-c3cnn(C4CCNCC4)c3)c2Oc2ccc(F)c(Cl)c2)N1C(=O)C1CC1 [I-169, (S)-(5-(3-chloro-4-fluorophenoxy)-2-methyl-6-(1-(piperidin-4-yl)-1H-pyrazol-4-yl)-3,4-dihydroquinolin-1(2H)-yl)(cyclopropyl)methanone] |
| < 50 | < 500 | 100 to 1000 | C[C@H]1CCc2c(ccc(-c3cnn(C4CNC4)c3)c2Oc2ccc(F)cc2)N1C(=O)C1CC1 [I-170, (S)-(6-(1-(azetidin-3-yl)-1H-pyrazol-4-yl)-5-(4-fluorophenoxy)-2-methyl-3,4-dihydroquinolin-1 (2H)-yl)(cyclopropyl)methanone] |
| < 50 | < 500 | 100 to 1000 | COC(=O)N1c2ccc(-c3cnn(C4CCNC4)c3)c(Oc3ccc(F)cc3)c2CC[C@@H]1C (stereo partly drawn) [I-185, (2S)-methyl 5-(4-fluorophenoxy)-2-methyl-6-(1-(pyrrolidin-3-yl)-1H-pyrazol-4-yl)-3,4-dihydroquinoline-1(2H)-carboxylate] |
| < 50 | < 500 | 100 to 1000 | COC(=O)N1c2ccc(-c3cnn(C4CCNCC4)c3)c(Oc3cccc(F)c3)c2CC[C@@H]1C [I-188, Methyl (S)-5-(3-fluorophenoxy)-2-methyl-6-(1-(piperidin-4-yl)-1H-pyrazol-4-yl)-3,4-dihydroquinoline-1(2H)-carboxylate] |
| < 50 | < 500 | 100 to 1000 | COC(=O)N1c2ccc(-c3cnn(C4CCNCC4)c3)c(Oc3cccc(Cl)c3)c2CC[C@@H]1C [I-189, Methyl (S)-5-(3-chlorophenoxy)-2-methyl-6-(1-(piperidin-4-yl)-1H-pyrazol-4-yl)-3,4-dihydroquinoline-1(2H)-carboxylate] |
| < 50 | < 500 | 100 to 1000 | CC(=O)N1c2ccc(-c3cnn(C4CCNCC4)c3)c(Oc3ccc(Cl)cc3)c2CC[C@@H]1C [I-191, (S)-1-(5-(4-chlorophenoxy)-2-methyl-6-(1-(piperidin-4-yl)-1H-pyrazol-4-yl)-3,4-dihydroquinolin-1(2H)-yl)ethanone] |
| < 50 | < 500 | 100 to 1000 | COC(=O)N1c2ccc(-c3cnn(C4CCNCC4)c3)c(Oc3ccccc3)c2CC[C@@H]1C [I-200, (S)-methyl 2-methyl-5-phenoxy-6-(1-(piperidin-4-yl)-1H-pyrazol-4-yl)-3,4-dihydroquinoline-1(2H)-carboxylate] |
